Results published in patent publication US8673894B2 (Hoffmann-La Roche Inc., priority 2010, dated 2014).
Counter-ions that a name gives are not always drawn.

How the values were obtained:
[1] = target: T1, endogenous cellular BACE2 (Rattus norvegicus, UniProt Q6IE75); assay: Assay for BACE inhibition by measuring cellular TMEM27 cleavage; assay type: cell-based; settings: INS-TMEM27 (INS1e-derived) cells, shed human TMEM27 in supernatant by ELISA
T1 construct: endogenous cellular BACE2 in the Ins1e rat cell line; endogenous in cells; host or cells: INS-TMEM27 (INS1e-derived rat insulinoma cell line with doxycycline-inducible full-length human TMEM27)
T1 sequence (Q6IE75 63-514): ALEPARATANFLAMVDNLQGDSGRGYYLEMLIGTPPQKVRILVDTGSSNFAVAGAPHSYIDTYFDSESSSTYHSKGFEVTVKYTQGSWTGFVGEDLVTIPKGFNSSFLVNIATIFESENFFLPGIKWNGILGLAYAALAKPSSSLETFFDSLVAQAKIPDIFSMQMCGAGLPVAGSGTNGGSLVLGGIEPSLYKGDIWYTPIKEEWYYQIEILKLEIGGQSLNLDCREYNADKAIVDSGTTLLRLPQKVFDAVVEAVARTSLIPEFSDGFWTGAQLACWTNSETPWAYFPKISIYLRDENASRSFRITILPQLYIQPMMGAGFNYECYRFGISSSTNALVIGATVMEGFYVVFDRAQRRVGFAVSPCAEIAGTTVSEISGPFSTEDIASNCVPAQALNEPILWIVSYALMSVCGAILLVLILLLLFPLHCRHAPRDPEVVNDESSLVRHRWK
Description: Assay for BACE Inhibition by Measuring Cellular TMEM27 Cleavage:
The assay uses the principle of inhibition of human TMEM27 cleavage by endogenous cellular BACE2 in the Ins1e rat cell line and shedding from the cell surface into the culture medium, followed by detection in an ELISA assay. Inhibition of BACE2 prevents the cleavage and shedding in a dose-dependent manner.
The stable cell line “INS-TMEM27” represents an INS1e-derived cell line with inducible expression (using the TetOn system) of full-length hTMEM27 in a doxycycline-dependent manner. The cells are cultured throughout the experiment in RPMI1640+ Glutamax (Invitrogen) Penicillin/Streptomycin, 10% Fetal bovine serum, […], […], 100 micrograms/ml G418 and 100 microgram/ml hygromycin and are grown inadherent culture at 37° C. in a standard CO2 cell culture incubator.
INS-TMEM27 cells are seeded in 96-well plates. After 2 days in culture, BACE2 inhibitor is added in a range of concentrations as required by the assay and after a further two hours, doxycycline is added to a final concentration of 500 ng/ml. The cells are incubated for a further 46 hours and the supernatant harvested for detection of shed TMEM27.
An ELISA assay (using a pair of mouse anti-human-TMEM27 antibodies, raised against the extracellular domain of TMEM27) is used for detection of TMEM27 in the culture medium. An EC50 for BACE2 inhibition is calculated using the ELISA readout for each inhibitor concentration with standard curve-fitting software such as XLFit for the Excel spreadsheet program.

[2] = tested on: Aβ40; assay: Cellular Aβ-lowering assay; assay type: cell-based; settings: HEK293 cells stably expressing human APP695, Aβ40 in supernatant by ELISA after 18-20 hrs; read-out: Cellular assay Abeta40 IC50
Procedure: Cellular Aβ-Lowering Assay:
Human HEK293 cells which are stably transfected with a vector expressing a cDNA of the human APP wt gene (APP695) were used to assess the potency of the compounds in a cellular assay. The cells were seeded in 96-well microtiter plates in cell culture medium (Iscove, plus 10% (v/v) fetal bovine serum, glutamine, penicillin/streptomycin) to about 80% confluence and the compounds were added at a 10× concentration in 1/10 volume of medium without FCS containing 8% DMSO (final concentration of DMSO was kept at 0.8% v/v). After 18-20 hrs incubation at 37° C. and 5% CO2 in a humidified incubator the culture supernatant was harvested for the determination of Aβ40 concentrations. 96well ELISA plates (e.g., Nunc MaxiSorb) were coated with monoclonal antibody which specifically recognize the C-terminal end of Aβ40 (Brockhaus et al., NeuroReport 9, 1481-1486; 1998). After blocking of non-specific binding sites with e.g. 1% BSA and washing, the culture supernatants were added in suitable dilutions together with a horseradish peroxidase-coupled Aβ detection antibody (e.g., antibody 4G8, Senetek, Maryland Heights, Mo.) and incubated for 5 to 7 hrs. Subsequently the wells of the microtiter plate were washed extensively with Tris-buffered saline containing 0.05% Tween 20 and the assay was developed with tetramethylbenzidine/H2O2 in citric acid buffer. After stopping the reaction with one volume 1 N H2SO4 the reaction was measured in an ELISA reader at 450 nm wavelength. The concentrations of Aβ in the culture supernatants were calculated from a standard curve obtained with known amounts of pure Aβ peptide.

IC50 [1]	IC50 [2]	Structure (SMILES)
> 10000 nM	2200 nM	NC1=N[C@@]2(c3cc(NC(=O)c4ccc(OCC(F)(F)F)cn4)ccc3F)C[C@H]2COC1 (racemic) [Example 2, 5-(2,2,2-Trifluoro-ethoxy)-pyridine-2-carboxylic acid [3-((1SR,7RS)-3-amino-5-oxa-2-aza-bicyclo[5.1.0]oct-2-en-1-yl)-4-fluoro-phenyl]-amide]
245 nM	34 nM	NC1=N[C@@]2(c3cccc(NC(=O)c4ccc(Cl)cn4)c3)C[C@H]2COC1 (racemic) [Example 3, 5-Chloro-pyridine-2-carboxylic acid [3-((1SR,7RS)-3-amino-5-oxa-2-aza-bicyclo[5.1.0]oct-2-en-1-yl)-phenyl]-amide]
8900 nM	630 nM	NC1=N[C@@]2(c3cccc(NC(=O)c4ccc(OCC(F)(F)F)cn4)c3)C[C@H]2COC1 (racemic) [Example 4, 5-(2,2,2-Trifluoro-ethoxy)-pyridine-2-carboxylic acid [3-((1SR,7RS)-3-amino-5-oxa-2-aza-bicyclo[5.1.0]oct-2-en-1-yl)-phenyl]-amide]
8590 nM	100 nM	NC1=N[C@@]2(c3cccc(NC(=O)c4ncc(C(F)(F)F)cc4Cl)c3)C[C@H]2COC1 (stereo in doubt) [Example 51, 3-Chloro-5-trifluoromethyl-pyridine-2-carboxylic acid [3-((R)-3-amino-5-oxa-2-aza-bicyclo[5.1.0]oct-2-en-1-yl)-phenyl]-amide; salt with trifluoroacetic acid]
0.885 nM	0.9 nM	C[C@@]1(c2cc(NC(=O)c3ccc(Cl)cn3)ccc2F)CCOCC(N)=N1 [Example 5, 5-Chloro-pyridine-2-carboxylic acid [3-((S)-3-amino-5-methyl-2,5,6,7-tetrahydro-[1,4]oxazepin-5-yl)-4-fluoro-phenyl]-amide formate]
3.6 nM	36 nM	C[C@@]1(c2cc(NC(=O)c3ncccc3F)ccc2F)CCOCC(N)=N1 [Example 6, 3-Fluoro-pyridine-2-carboxylic acid [3-((S)-3-amino-5-methyl-2,5,6,7-tetrahydro-[1,4]oxazepin-5-yl)-4-fluoro-phenyl]-amide formate]
1.45 nM	16 nM	C[C@@]1(c2cc(NC(=O)c3ccccn3)ccc2F)CCOCC(N)=N1 [Example 7, Pyridine-2-carboxylic acid [3-((S)-3-amino-5-methyl-2,5,6,7-tetrahydro-[1,4]oxazepin-5-yl)-4-fluoro-phenyl]-amide]
1.8 nM	2.5 nM	C[C@@]1(c2cc(NC(=O)c3ncc(Cl)cc3Cl)ccc2F)CCOCC(N)=N1 [Example 8, 3,5-Dichloro-pyridine-2-carboxylic acid [3-((S)-3-amino-5-methyl-2,5,6,7-tetrahydro-[1,4]oxazepin-5-yl)-4-fluoro-phenyl]-amide]
10 nM	1.6 nM	C[C@@]1(c2cc(NC(=O)c3ccc(F)cn3)ccc2F)CCOCC(N)=N1 [Example 9]
1.6 nM	1.1 nM	CC1(C)C[C@@](C)(c2cc(NC(=O)c3ccc(Cl)cn3)ccc2F)N=C(N)CO1 [Example 10, 5-Chloro-pyridine-2-carboxylic acid [3-((S)-3-amino-5,7,7-trimethyl-2,5,6,7-tetrahydro-[1,4]oxazepin-5-yl)-4-fluoro-phenyl]-amide]
2 nM	2.1 nM	CC1(C)C[C@@](C)(c2cc(NC(=O)c3ccc(OC(F)F)cn3)ccc2F)N=C(N)CO1 [Example 11, 5-Difluoromethoxy-pyridine-2-carboxylic acid [3-((S)-3-amino-5,7,7-trimethyl-2,5,6,7-tetrahydro-[1,4]oxazepin-5-yl)-4-fluoro-phenyl]-amide]
120 nM	9 nM	C[C@@]1(c2cc(NC(=O)c3ccc(OCC(F)(F)F)cn3)ccc2F)CCOCC(N)=N1 [Example 12, 5-(2,2,2-Trifluoro-ethoxy)-pyridine-2-carboxylic acid [3-((S)-3-amino-5-methyl-2,5,6,7-tetrahydro-[1,4]oxazepin-5-yl)-4-fluoro-phenyl]-amide]
44 nM	250 nM	CC[C@@]1(c2cc(NC(=O)c3ccc(F)cn3)ccc2F)CCOCC(N)=N1 [Example 13, 5-Fluoro-pyridine-2-carboxylic acid [3-((S)-3-amino-5-ethyl-2,5,6,7-tetrahydro-[1,4]oxazepin-5-yl)-4-fluoro-phenyl]-amide]
69.5 nM	93 nM	CC[C@@]1(c2cc(NC(=O)c3ccc(Cl)cn3)ccc2F)CCOCC(N)=N1 [Example 14, 5-Chloro-pyridine-2-carboxylic acid [3-((S)-3-amino-5-ethyl-2,5,6,7-tetrahydro-[1,4]oxazepin-5-yl)-4-fluoro-phenyl]-amide]
38 nM	880 nM	CC[C@@]1(c2cc(NC(=O)c3ncc(Cl)cc3Cl)ccc2F)CCOCC(N)=N1 [Example 15, 3,5-Dichloro-pyridine-2-carboxylic acid [3-((S)-3-amino-5-ethyl-2,5,6,7-tetrahydro-[1,4]oxazepin-5-yl)-4-fluoro-phenyl]-amide]
13.5 nM	14 nM	C[C@@]1(c2cc(NC(=O)c3ncc(C(F)(F)F)cc3Cl)ccc2F)CCOCC(N)=N1 [Example 16, 3-Chloro-5-trifluoromethyl-pyridine-2-carboxylic acid [3-((S)-3-amino-5-methyl-2,5,6,7-tetrahydro-[1,4]oxazepin-5-yl)-4-fluoro-phenyl]-amide]
400 nM	920 nM	C[C@@]1(c2cc(NC(=O)C3(C(F)(F)F)CC3)ccc2F)CCOCC(N)=N1 [Example 17, 1-Trifluoromethyl-cyclopropanecarboxylic acid [3-((S)-3-amino-5-methyl-2,5,6,7-tetrahydro-[1,4]oxazepin-5-yl)-4-fluoro-phenyl]-amide]
120 nM	22 nM	CC1(C)C[C@@](C)(c2cc(NC(=O)c3ccc(OCC(F)(F)F)cn3)ccc2F)N=C(N)CO1 [Example 18, 5-(2,2,2-Trifluoro-ethoxy)-pyridine-2-carboxylic acid [3-((S)-3-amino-5,7,7-trimethyl-2,5,6,7-tetrahydro-[1,4]oxazepin-5-yl)-4-fluoro-phenyl]-amide]
56 nM	440 nM	CC1(C)C[C@@](C)(c2cc(NC(=O)C3CC3(F)F)ccc2F)N=C(N)CO1 (stereo partly drawn) [Example 19, 2,2-Difluoro-cyclopropanecarboxylic acid [3-((S)-3-amino-5,7,7-trimethyl-2,5,6,7-tetrahydro-[1,4]oxazepin-5-yl)-4-fluoro-phenyl]-amide]
	1.3 nM	C[C@]1(c2cc(NC(=O)c3ccc(Cl)cn3)ccc2F)N=C(N)COCC1(F)F [Example 26, (R)-N-(3-(3-amino-6,6-difluoro-5-methyl-2,5,6,7-tetrahydro-1,4-oxazepin-5-yl)-4-fluorophenyl)-5-chloropicolinamide]
	5070 nM	C[C@@]1(c2cc(NC(=O)c3ccc(Cl)cn3)ccc2F)C[C@@H](c2ccccc2)OCC(N)=N1 [Example 69]
